# From the supplement of paper PMC10949913
# Legend:
# Test in all cases: area under concentration-response curve (viability) (AUC (a.u.)); higher = less active
# Conditions in all cases: 48 h
# CU-ACC1 = tested on: CU-ACC1
# Method in brief: (§1)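 After 48 h of treatment with 23 nL of each library compound at 11 concentrations, three adrenocortical carcinoma cell lines in 1,536-well plates (500–1,000 cells/well, 5 µL medium) were given CellTiter-Glo for 15 minutes at room temperature. Luminescence was then read and normalised per plate to vehicle and empty-well controls. AC50 and area under the curve were drawn from fitted concentration-response curves of inhibitory or non-responding classes only.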
# CU-ACC2 = tested on: CU-ACC2
# Method in brief: as §1
# NCI-H295R = tested on: NCI-H295R
# Method in brief: as §1
Structure (SMILES),area under concentration-response curve (CU-ACC1),area under concentration-response curve (CU-ACC2),area under concentration-response curve (NCI-H295R)
CCN([C@H]1CC[C@@H](CC1)N(C)CCOC)C2=C(C)C(=CC(=C2)C#CCN3CCOCC3)C(=O)NC\C4=C(C)\C=C(\C)NC4=O,536,500,552
CN(C)CCc1c[nH]c2ccc(C[S+](=O)([O-])N3CCCC3)cc12,490,612,513
O=P1(N(CCCl)CCCl)NCCCO1 (stereo unspecified),534,578,526
C[N]1C=C(C2=C1C=CC=C2)\C3=C(\C(=O)NC3=O)C4=C5CC(CN)CC[N]5C6=C4C=CC=C6 (stereo unspecified),517,620,559
CCCc1nc(C(C)(C)O)c(C(=O)O)n1Cc1ccc(-c2ccccc2-c2nn[nH]n2)cc1,436,521,462
CC(C)[C@H](O)C(=O)N[C@@H](C)C(=O)N[C@@H]1C(=O)N(C)CCc2ccccc21,522,577,575
CC1=CC(=O)c2ccccc2C1=O,495,530,501
O=C(O)CCNc1cc(N2CCc3ccccc3CC2)nc(-c2cccnc2)n1,538,636,533
NC/1=N/[C@]2(COC[C@H]2CS1)C3=CC(=CC=C3F)NC(=O)C4=NC=C(F)C=C4,499,569,490
CC1=C(CC(=O)O)c2cc(F)ccc2/C1=C\c1ccc([S+](C)[O-])cc1 (stereo unspecified),526,647,573
CC1=CC=C2\N=C/3N(CC[C@@]3(O)C(=O)C2=C1)C4=CC=CC=C4,537,616,552
C[C@H](CCC(=O)O)[C@H]1CC[C@H]2[C@@H]3[C@H](O)C[C@@H]4C[C@H](O)CC[C@]4(C)[C@H]3CC[C@]12C,477,558,485
CC(C)(OCc1nn(Cc2ccccc2)c2ccccc12)C(=O)O,416,460,491
CC1=CC/2=C(C=C1C)N(C[C@@H](O)[C@@H](O)[C@@H](O)CO)C/3=N/C(=O)NC(=O)C3=N2,481,586,505
C[C@]12CC[C@H]3[C@@H](CCC4=CC(=O)CC[C@@H]43)[C@@H]1CC[C@@H]2OC(=O)CCc1ccccc1,461,534,498
O=C(O)CNC(=O)c1nc(Cl)c2ccccc2c1O,498,604,529
OC[C@@H](O)[C@@H](O)[C@H](O)[C@@H](O)CO,562,645,592
CCCc1c(OCCCOc2ccc(OCC(=O)O)cc2)ccc(C(C)=O)c1O,518,607,548
Cc1nc(-c2ccc(OCC(C)C)c(C#N)c2)sc1C(=O)O,478,544,306

Structure (SMILES),area under concentration-response curve (CU-ACC1),area under concentration-response curve (CU-ACC2),area under concentration-response curve (NCI-H295R)
CCCCC(F)(F)[C@@]1(O)CC[C@H]2[C@@H](CC(=O)[C@@H]2CCCCCCC(=O)O)O1,494,599,541
Cc1nc2c([nH]1)-c1ccccc1N(C(=O)c1ccc(NC(=O)c3ccccc3-c3ccccc3)cc1)CC2,437,542,487
O=C1NC(=O)/C(=C\c2ccc(-c3ccc(F)cc3)o2)S1,471,572,522
CN1CCN(CC1)C\2=C\3/C=C(/C)SC3=N/C4=CC=CC=C4N2,556,513,555
CC1C\2C(O)C3C(N(C)C)C(=O)\C(=C(O)/C3(O)C(=O)C2=C(O)/C4=C1C=CC=C4O)C(N)=O (stereo unspecified),473,573,502
COc1ccc2c(C(=S)N(C)CC(=O)O)cccc2c1C(F)(F)F,490,535,481
OCCn1cc(-c2ccc3c(c2)CC/C3=N\O)c(-c2ccncc2)n1,492,595,538
O=C(N[C@H]1CN2CCC1CC2)c1ccc(Cl)cc1,495,616,554
C#CCN(C)[C@H](C)Cc1ccccc1,467,457,434
O=C1NC(=O)/C(=C/c2ccc3nccnc3c2)S1,452,443,496
C/C=C/C(=O)N(CC)c1ccccc1C,417,468,441
Nc1nc(OCc2ccccc2)c2nc[nH]c2n1,432,479,441
Oc1cc(O)cc(/C=C/c2ccc(O)c(O)c2)c1,519,511,525
CN(C)CC(C)(C)CNc1nn2c(-c3ccccc3)nnc2cc1C1CCC1,473,566,469
CCOC1=CC=C(C=C1)N2C(=O)C3=CC=CN=C3/N=C2/[C@@H](C)N(CC4=CC=CN=C4)C(=O)CC5=CC=C(F)C(=C5)C(F)(F)F,516,606,569
CCOCC(O)COc1ccc(NC(=O)CC[S+](C)C)cc1 (stereo unspecified),367,394,411
CC(C)Cc1ccc([C@@H](C)C(=O)N[S+](C)(=O)[O-])cc1,492,586,553
CCCCCOC(=O)NC\1=N\C(=O)N(\C=C1F)[C@@H]2O[C@H](C)[C@@H](O)[C@H]2O,512,606,559
